# Laboratory results taken from patent US20260062422A1 (Halda Therapeutics OpCo, Inc., priority 2022, published 2026).
# System: T47D cells
# Experiment: Cellular growth inhibition assay for T47D cells, CellTiter-Glo
# Type: cell-based, human
# Details: 72 hours treatment, CellTiter-Glo 2.0 cell viability
# Description: T47D cells were purchased from American Type Cell Culture (ATCC Cat #HTB-133) and then seeded on poly-D-lysine coated, black clear-bottom 384-well plates at 3000/well in 25 μL Dulbecco's Modified Eagle Medium (DMEM) supplemented with 10% w/w Fetal bovine serum (FBS), 0.2 units/mL recombinant human insulin (Gibco Cat #12585014), and 1% w/w Pen-Strep. Pen-Strep is a commercially available mixture of penicillin G and streptomycin, which is used in mammalian cell culture media to prevent bacterial contamination. Dulbecco's Modified Eagle Medium (DMEM) supplemented with 10% w/w fetal bovine serum (FBS), 0.2 units/mL recombinant human insulin, and 1% w/w Pen-Strep is herein referred to as Treatment Medium. Following seeding of cells in the plates, the plates were spun at 300×g for 30 seconds, then equilibrated to room temperature for 30 minutes, and then deposited in a humidified tissue culture incubator maintained at 37° C. with 5% CO2.
# At 24 hours after seeding of the cells, dilutions of test compound were prepared in DMSO and dissolved in Treatment Medium, to achieve a final DMSO concentration of 0.5% w/w, thereby providing the Test Compound Solution. A 25 μL aliquot of the Test Compound Solution was added to cells in the well plates. An equal volume of a solution containing DMSO and Treatment Medium was used as a negative control. Following treatment of cells with Test Compound Solution or said equal volume of a solution containing DMSO and Treatment Medium, the plates were spun at 300×g for 30 seconds, and then left in an incubator for 72 hours.
# At the end of the treatment duration, cell viability was quantified with CellTiter-Glo 2.0 reagent (Promega Cat #G9243). For this purpose, plates were equilibrated to room temperature for 30 minutes, and then 25 μL of CellTiter-Glo 2.0 reagent was added to cells in the plate wells. Plates were then agitated on a shaker for two minutes at 500 rpm and subsequently incubated at room temperature for 10 minutes. Following incubation, the plates were spun at 3000×g for 30 seconds, then sealed with an optical adhesive cover, and luminescence readings were measured with an EnVision Plate Reader (Perkin Elmer).
# Data was normalized using zero luminescence for baseline. A four-parameter non-linear regression curve fit was applied to dose-response data in GraphPad Prism data analysis software to determine the half-maximal growth inhibitory concentration (GI50) for each test compound.
row,Structure (SMILES),GI50
1,Cc1sc2c(c1C)C(c1ccc(N3CC(C4CCCC(Cc5ncc(C(=O)N[C@H]6C(C)(C)[C@H](Oc7ccc(C#N)c(Cl)c7)C6(C)C)cn5)C4)C3)cc1)=N[C@@H](Cc1ncco1)c1nnc(C)n1-2 (some centres unmarked) [Compound I-581],< 500 nM
2,Cc1sc2c(c1C)C(c1ccc([C@H]3C[C@@H]3CC3CCCN(c4ncc(C(=O)N[C@H]5C(C)(C)[C@H](Oc6ccc(C#N)c(Cl)c6)C5(C)C)cn4)C3)cc1)=N[C@@H](Cc1ncco1)c1nnc(C)n1-2 (some centres unmarked) [Compound I-493],500 to 1500 nM
3,Cc1sc2c(c1C)C(c1ccc(C3CC3C3CC4(CCN(c5cnc(C(=O)N[C@H]6C(C)(C)[C@H](Oc7ccc(C#N)c(Cl)c7)C6(C)C)cn5)CC4)C3)cc1)=NC(Cc1ncco1)c1nnc(C)n1-2 (some centres unmarked) [Compound I-539],> 3000 nM
4,Cc1sc2c(c1C)C(c1ccc(C3CC3C3CC4(CCN(c5cnc(C(=O)N[C@H]6C(C)(C)[C@H](Oc7ccc(C#N)c(Cl)c7)C6(C)C)cn5)CC4)C3)cc1)=NC(Cc1ncco1)c1nnc(C)n1-2 (some centres unmarked) [Compound I-541],< 500 nM
5,Cc1sc2c(c1C)C(c1ccc(OCC3CC4(CCCN(c5ncc(C(=O)N[C@H]6C(C)(C)[C@H](Oc7ccc(C#N)c(Cl)c7)C6(C)C)cn5)C4)C3)cc1)=NC1(CC1)c1nnc(C)n1-2 [Compound I-500],> 3000 nM
6,Cc1sc2c(c1C)C(c1ccc(N3CC(C4CCC(Cc5ncc(C(=O)N[C@H]6C(C)(C)[C@H](Oc7ccc(C#N)c(Cl)c7)C6(C)C)cn5)CC4)C3)cc1)=N[C@@H](Cc1ncco1)c1nnc(C)n1-2 (some centres unmarked) [Compound I-543],> 3000 nM
7,Cc1sc2c(c1C)C(c1ccc(C#CC3CC4(CCCN(c5ncc(C(=O)N[C@H]6C(C)(C)[C@H](Oc7ccc(C#N)c(Cl)c7)C6(C)C)cn5)C4)C3)cc1)=NC1(CC1)c1nnc(C)n1-2 [Compound I-487],> 3000 nM
8,Cc1sc2c(c1C)C(c1ccc([C@H]3C[C@@H]3CC3CCCN(c4ncc(C(=O)N[C@H]5C(C)(C)[C@H](Oc6ccc(C#N)c(Cl)c6)C5(C)C)cn4)C3)cc1)=NC(Cc1ncco1)c1nnc(C)n1-2 (some centres unmarked) [Compound I-491],> 3000 nM
9,Cc1sc2c(c1C)C(c1ccc(C3CC3C3CC4(CCN(c5cnc(C(=O)N[C@H]6C(C)(C)[C@H](Oc7ccc(C#N)c(Cl)c7)C6(C)C)cn5)CC4)C3)cc1)=NC(Cc1ncco1)c1nnc(C)n1-2 (some centres unmarked) [Compound I-540],< 500 nM
10,Cc1sc2c(c1C)C(c1ccc(C#CC3CCC(Cc4ncc(C(=O)N[C@H]5C(C)(C)[C@H](Oc6ccc(C#N)c(Cl)c6)C5(C)C)cn4)CC3)cc1)=N[C@@H](Cc1ncco1)c1nnc(C)n1-2 (some centres unmarked) [Compound I-506],500 to 1500 nM
11,Cc1sc2c(c1C)C(c1ccc(C3CC3C3CC4(CCN(c5cnc(C(=O)N[C@H]6C(C)(C)[C@H](Oc7ccc(C#N)c(Cl)c7)C6(C)C)cn5)CC4)C3)cc1)=NC(Cc1ncco1)c1nnc(C)n1-2 (some centres unmarked) [Compound I-538],> 3000 nM
12,Cc1sc2c(c1C)C(c1ccc([C@H]3C[C@@H]3CC3CCCN(c4ncc(C(=O)N[C@H]5C(C)(C)[C@H](Oc6ccc(C#N)c(Cl)c6)C5(C)C)cn4)C3)cc1)=NC(Cc1ncco1)c1nnc(C)n1-2 (some centres unmarked) [Compound I-495],< 500 nM
13,Cc1sc2c(c1C)C(c1ccc([C@@H]3C[C@H]3C3CC4(CCN(c5cnc(C(=O)N[C@H]6C(C)(C)[C@H](Oc7ccc(C#N)c(Cl)c7)C6(C)C)cn5)CC4)C3)cc1)=N[C@@H](Cc1ncco1)c1nnc(C)n1-2 [Compound I-519],> 3000 nM
14,Cc1sc2c(c1C)C(c1ccc(C#CC3CC(Cc4ncc(C(=O)N[C@H]5C(C)(C)[C@H](Oc6ccc(C#N)c(Cl)c6)C5(C)C)cn4)C3)cc1)=NC(Cc1ncco1)c1nnc(C)n1-2 (some centres unmarked) [Compound I-559],500 to 1500 nM
15,Cc1sc2c(c1C)C(c1ccc(C3CC3C3CC4(CCN(c5cnc(C(=O)N[C@H]6C(C)(C)[C@H](Oc7ccc(C#N)c(Cl)c7)C6(C)C)cn5)CC4)C3)cc1)=N[C@@H](C)c1nnc(C)n1-2 (some centres unmarked) [Compound I-536],> 3000 nM
16,Cc1sc2c(c1C)C(c1ccc(C3CC(CC4CCN(c5ncc(C(=O)N[C@H]6C(C)(C)[C@H](Oc7ccc(C#N)c(Cl)c7)C6(C)C)cn5)CC4)C3)cc1)=NC(C)c1nnc(C)n1-2 (some centres unmarked) [Compound I-511],> 3000 nM

# Same assay, conditions: Homo sapiens, T47D, 72 h, 72 hours treatment, CellTiter-Glo 2.0 cell viability
row,Structure (SMILES),GI50
1,Cc1sc2c(c1C)C(c1ccc(C#CC3CC(Cc4ncc(C(=O)N[C@H]5C(C)(C)[C@H](Oc6ccc(C#N)c(Cl)c6)C5(C)C)cn4)C3)cc1)=NC(Cc1ncco1)c1nnc(C)n1-2 (some centres unmarked) [Compound I-560],500 to 1500 nM
2,Cc1sc2c(c1C)C(c1ccc([C@@H]3C[C@H]3C3CC4(CCN(c5cnc(C(=O)N[C@H]6C(C)(C)[C@H](Oc7ccc(C#N)c(Cl)c7)C6(C)C)cn5)CC4)C3)cc1)=N[C@@H](Cc1ncco1)c1nnc(C)n1-2 [Compound I-518],> 3000 nM
3,Cc1sc2c(c1C)C(c1ccc(N3CC(C4CCN(c5ccc(C(=O)N[C@H]6C(C)(C)[C@H](Oc7ccc(C#N)c(Cl)c7)C6(C)C)cn5)CC4)C3)cc1)=N[C@@H](C)c1nnc(C)n1-2 [Compound I-551],< 500 nM
4,Cc1sc2c(c1C)C(c1ccc(N3CC(C4CCN(c5ccc(C(=O)N[C@H]6C(C)(C)[C@H](Oc7ccc(C#N)c(Cl)c7)C6(C)C)nc5)CC4)C3)cc1)=N[C@@H](C)c1nnc(C)n1-2 [Compound I-552],1500 to 3000 nM
5,Cc1sc2c(c1C)C(c1ccc(C3CC3C3CC4(CCN(c5cnc(C(=O)N[C@H]6C(C)(C)[C@H](Oc7ccc(C#N)c(Cl)c7)C6(C)C)cn5)CC4)C3)cc1)=N[C@@H](C)c1nnc(C)n1-2 (some centres unmarked) [Compound I-535],> 3000 nM
6,Cc1sc2c(c1C)C(c1ccc(N3CC(CC4CN(c5ccc(C(=O)N[C@H]6C(C)(C)[C@H](Oc7ccc(C#N)c(Cl)c7)C6(C)C)nc5)C4)C3)cc1)=N[C@@H](C)c1nnc(C)n1-2 [Compound I-515],< 500 nM
7,Cc1sc2c(c1C)C(c1ccc(C#CC3CC4(CCCN(c5ncc(C(=O)N[C@H]6C(C)(C)[C@H](Oc7ccc(C#N)c(Cl)c7)C6(C)C)cn5)C4)C3)cc1)=NC1(CC1)c1nnc(C)n1-2 [Compound I-486],> 3000 nM
8,Cc1sc2c(c1C)C(c1ccc(N3CC4(C3)CN(c3cnc(C(=O)N[C@H]5C(C)(C)[C@H](Oc6ccc(C#N)c(Cl)c6)C5(C)C)cn3)C4)cc1)=N[C@@H](C)c1nnc(C)n1-2 [Compound I-517],1500 to 3000 nM
9,Cc1sc2c(c1C)C(c1ccc(ON3CC4(C3)CC3(CCN(c5cnc(C(=O)N[C@H]6C(C)(C)[C@H](Oc7ccc(C#N)c(Cl)c7)C6(C)C)cn5)CC3)C4)cc1)=N[C@@H](Cc1ncco1)c1nnc(C)n1-2 [Compound I-545],500 to 1500 nM
10,Cc1sc2c(c1C)C(c1ccc(OC3CC4(C3)CC3(CCN(c5ccc(C(=O)N[C@H]6C(C)(C)[C@H](Oc7ccc(C#N)c(Cl)c7)C6(C)C)nc5)CC3)C4)cc1)=NC1(CC1)c1nnc(C)n1-2 [Compound I-530],> 3000 nM
11,Cc1sc2c(c1C)C(c1ccc(N3CC(CC4CCN(c5ccc(C(=O)N[C@H]6C(C)(C)[C@H](Oc7ccc(C#N)c(Cl)c7)C6(C)C)cn5)CC4)C3)cc1)=N[C@@H](C)c1nnc(C)n1-2 [Compound I-502],< 500 nM
12,Cc1sc2c(c1C)C(c1ccc(CC3CC(CC4CCN(c5ncc(C(=O)N[C@H]6C(C)(C)[C@H](Oc7ccc(C#N)c(Cl)c7)C6(C)C)cn5)CC4)C3)cc1)=N[C@@H](C)c1nnc(C)n1-2 (some centres unmarked) [Compound I-512],< 500 nM
13,Cc1sc2c(c1C)C(c1ccc(N3CC(CC4CN(c5ncc(C(=O)N[C@H]6C(C)(C)[C@H](Oc7ccc(C#N)c(Cl)c7)C6(C)C)cn5)C4)C3)cc1)=N[C@@H](Cc1ncco1)c1nnc(C)n1-2 [Compound I-562],< 500 nM
14,Cc1sc2c(c1C)C(c1ccc(OC[C@@H]3CCCN(c4cnc(C(=O)N[C@H]5C(C)(C)[C@H](Oc6ccc(C#N)c(Cl)c6)C5(C)C)cn4)C3)cc1)=N[C@@H](Cc1ncco1)c1nnc(C)n1-2 [Compound I-591],< 500 nM
15,Cc1sc2c(c1C)C(c1ccc(N3CC(CC4CCN(c5cnc(C(=O)N[C@H]6C(C)(C)[C@H](Oc7ccc(C#N)c(Cl)c7)C6(C)C)cn5)CC4)C3)cc1)=N[C@@H](Cc1ncco1)c1nnc(C)n1-2 [Compound I-575],< 500 nM
16,Cc1sc2c(c1C)C(c1ccc(N3CC(CC4CN(c5cnc(C(=O)N[C@H]6C(C)(C)[C@H](Oc7ccc(C#N)c(Cl)c7)C6(C)C)cn5)C4)C3)cc1)=N[C@@H](Cc1ncco1)c1nnc(C)n1-2 [Compound I-563],< 500 nM
17,Cc1sc2c(c1C)C(c1ccc(OC3CC4(C3)CC3(CCN(c5cnc(C(=O)N[C@H]6C(C)(C)[C@H](Oc7ccc(C#N)c(Cl)c7)C6(C)C)cn5)CC3)C4)cc1)=NC1(CC1)c1nnc(C)n1-2 [Compound I-521],> 3000 nM
18,Cc1sc2c(c1C)C(c1ccc(N3CC(C4CCN(c5cnc(C(=O)N[C@H]6C(C)(C)[C@H](Oc7ccc(C#N)c(Cl)c7)C6(C)C)cn5)CC4)C3)cc1)=N[C@@H](C)c1nnc(C)n1-2 [Compound I-490],500 to 1500 nM
19,Cc1sc2c(c1C)C(c1ccc(CC3CCN(c4ncc(C(=O)N[C@H]5C(C)(C)[C@H](Oc6ccc(C#N)c(Cl)c6)C5(C)C)cn4)CC3)cc1)=N[C@@H](Cc1ncco1)c1nnc(C)n1-2 [Compound I-554],< 500 nM
